Reference: PMC11137734, “Exploring Novel Antimalarial Compounds Targeting Plasmodium falciparum Enoyl-ACP Reductase: Computational and Experimental Insights” (ACS Omega, 2024)

Legend:
[1] = target: T1, P. falciparum 2-trans-enoyl-ACP reductase (PfENR) (Plasmodium falciparum, UniProt C6KSZ2); experiment: NADH consumption enzymatic assay ([…] nm) with crotonyl-CoA, purified recombinant PfENR; positive control inhibitor; type: biochemical
T1 construct: gene PF3D7_0615100; recombinant His-tagged PfENR (pGS-21a, E. coli BL21(DE3))
T1 sequence (C6KSZ2 96-432): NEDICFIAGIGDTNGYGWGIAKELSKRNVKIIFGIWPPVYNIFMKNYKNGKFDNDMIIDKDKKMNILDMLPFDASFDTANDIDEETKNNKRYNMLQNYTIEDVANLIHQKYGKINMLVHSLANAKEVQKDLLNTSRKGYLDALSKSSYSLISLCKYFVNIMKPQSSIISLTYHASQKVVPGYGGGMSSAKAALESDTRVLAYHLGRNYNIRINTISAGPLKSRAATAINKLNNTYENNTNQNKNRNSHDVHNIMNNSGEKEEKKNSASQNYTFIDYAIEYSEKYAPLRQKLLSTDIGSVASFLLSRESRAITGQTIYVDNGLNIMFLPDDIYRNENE

[2] = target: T1, P. falciparum 2-trans-enoyl-ACP reductase (PfENR); experiment: NADH consumption enzymatic assay ([…] nm) with crotonyl-CoA, purified recombinant PfENR; type: biochemical

IC50 [2] [µM]	SMILES	IC50 [1] [µM]
	Oc1cc(Cl)ccc1Oc1ccc(Cl)cc1Cl [TCL, Triclosan]	3.58
3.95	CCc1ccc(Oc2ccc(NS(=O)(=O)c3ccc4ccccc4c3)cc2)cc1 [LG2, N-[4-(4-ethylphenoxy)phenyl]naphthalene-2-sulfonamide]	
